Measured values published in patent US11325955B2, “Stabilized anti-microbial peptides for the treatment of antibiotic-resistant bacterial infections” (priority 2017, dated 2022).
In brackets after ≈: the same amount, converted by molar mass. Like-named read-outs stand apart in the source and are kept apart here. Positions of bridges follow the written chain, without caps; N, C: chain ends. Non-standard residues stand in square brackets, D forms with d. Residues, ends and D or L forms follow the SMILES beside them. S5 = C=CCCC[C@](C)(N)C(=O)O; Nle = CCCC[C@H](N)C(=O)O

Columns and labels:
A baumannii = type: cell-based
Experimental: (§1) The following microbroth dilution protocol was adapted to determine the minimum inhibitory concentration (MIC) of each peptide. First, Mueller-Hinton broth (MHB) was passed through an anion exchange column to remove polyanionic species and generate refined MHB. […] Briefly, bacterial cells were grown overnight in refined MHB at 37° C. and then diluted and allowed to grow again for several hours. Serial dilutions of peptide stocks in water (10 μl) were prepared using clear round-bottom polypropylene 96-well plates. Then 90 μl of bacteria in refined MHB was added to give a final inoculum of 5×10^5 CFU/ml. The plates were then covered with porous tape to reduce evaporation, and incubated for 20-24 hours at 37° C. The MIC is the minimum peptide concentration at which no visible growth was observed.

B cereus = type: cell-based
Experimental: as §1

P aeruginosa = type: cell-based
Experimental: as §1

S aureus = type: cell-based
Experimental: as §1

E coli = type: cell-based
Experimental: as §1

[1] = test system: E. coli clinical isolates that harbor the MCR-1 plasmid; type: cell-based
Experimental: StAMPs were screened against a panel of MDR clinical samples obtained from the Antimicrobial Resistance Isolate Bank of the Centers for Disease Control and Prevention (Atlanta, Ga.).
as §1
The first three StAMPs of Table 2 in Example 3 were then tested against 39 clinical isolates of A. baumannii with various degrees of colistin resistance (Table 3, 4).

[2] = test system: human red blood cells (RBCs); experiment: Hemolytic activity assay; type: cell-based; conditions: peptide at 25 μg/ml, 1 hour at 37° C.
Experimental: For the determination of hemolytic activity, human blood samples were centrifuged to isolate red blood cells (RBCs), which are then washed and suspended in phosphate-buffered saline to yield a 1% (v/v) suspension. The suspension was then added to serial dilutions of peptide stocks in water in clear round-bottom polypropylene 96-well plates and the plates were incubated for 1 hour at 37° C. After incubation, the plates were centrifuged and the supernatant was isolated to determine the amount of hemoglobin released using a spectrophotometer (570 nm), according to the equation: % Hemolysis=(Treated Absorbance−Untreated Control Absorbance)/(1% Triton-X100 Treated Absorbance−Untreated Control Absorbance). The minimum hemolytic concentration (MHC) is the peptide concentration at which there is less than 1% hemoglobin release.

[3] = test system: primary human renal proximal tubule epithelial cells (pRPTECs); experiment: Renal toxicity assay (pRPTEC lysis, LDH release)
Experimental: (§3) In one embodiment, pRPTECs are seeded at a density of 10,000 cells per well on 96 well plates and incubated for 48 hours at 37° C. Cells are then treated with different concentrations of the StAMP and incubated for another 24-to-48 hour period. Cell viability is then determined and/or lactate dehydrogenase (LDH) release is measured.
(§4) Briefly, pRPTECs in complete growth cell medium were seeded in a 96 well plate at a density of 10,000 cells per well and incubated at 37° C. for 48 hours. Complete medium was then removed and replaced with a toxicity assay medium to which various concentrations of StAMP were added. Cells were then further incubated for 24 to 48 hours after which cell medium was collected and assayed for the presence of Lactate Dehydrogenase (LDH) using a Cytotoxicity Detection Kit (LDH) (Roche).

[4] = test system: primary human renal proximal tubule epithelial cells (pRPTECs); conditions: for pRPTEC lysis (% LDH release) compared to Mag(i+4)1,15(A9K): 90 minute incubation, FIG. 2; for pRPTEC lysis (% LDH release), long-term lytic activity: 48 hours incubation, FIG. 3
Experimental: as §3, §4

[5] = test system: Methicillin-resistant S Aureus; type: cell-based
Experimental: as §1
(§2) StAMPs Mag(i+4)2,15(A9K), Pleu(i+4)1,15(A9K) and Pleu(i+4)1,15 were also then tested against 4 clinical isolates of S. aureus of which two were methicillin-susceptible (MSSA) and two were methicillin-resistant (MRSA) (Table 5).

[6] = test system: Methicillin-susceptible S Aureus; type: cell-based
Experimental: as §1, §2

[7] = E. coli CDC Bank# 346, contains MCR-1 plasmid
[8] = E. coli CDC Bank# 349, contains MCR-1 plasmid

Structure (SMILES)	MIC A baumannii (A baumannii)	MIC B cereus (B cereus)	MIC P aeruginosa (P aeruginosa)	MIC S aureus (S aureus)	MIC E coli (E coli)	Antimicrobial Activity MIC [1, 7]	Antimicrobial Activity MIC [1, 8]	% Hemolysis at 25 μg/ml [2]	toxicity on pRPTECs (membranolysis) [3]	pRPTEC lysis (% LDH release) compared to Mag(i+4)1,15(A9K) [4]	pRPTEC lysis (% LDH release), long-term lytic activity [4]	Antimicrobial Activity MIC [5]	Antimicrobial Activity MIC [6]
CCCC[C@H](NC(=O)[C@]1(C)CCCC=CCCC[C@](C)(NC(=O)[C@H](C)NC(=O)[C@H](CCCCN)NC(=O)CNC(=O)[C@H](Cc2ccccc2)NC(=O)[C@H](CCCCN)NC(=O)[C@H](CCCCN)NC(=O)[C@H](CCCCN)NC(=O)[C@H](CO)NC(=O)[C@H](Cc2c[nH]cn2)NC(=O)[C@]2(C)CCCC=CCCC[C@](C)(NC(=O)CN)C(=O)NCC(=O)N[C@@H](CCCCN)C(=O)N[C@@H](Cc3ccccc3)C(=O)N2)C(=O)N[C@@H](C(C)C)C(=O)NCC(=O)N[C@@H](CCC(=O)O)C(=O)N1)C(=O)N[C@@H](CC(N)=O)C(=O)N[C@@H](CO)C(N)=O [Mag(i+4)1,15(A9K), GXGKFXHSKKKFGKAXVGEXBNS] (H-G[S5]GKF[S5]HSKKKFGKA[S5]VGE[S5][Nle]NS-NH2; staple 2-6, 16-20)	1.6 µg/mL (≈ 0.635 µM)	6.2 µg/mL (≈ 2.46 µM)	3.1 µg/mL (≈ 1.23 µM)	50 µg/mL (≈ 19.8 µM)	1.6 µg/mL (≈ 0.635 µM)	1.6 µg/mL	3.1 µg/mL	1.9%	could cause membranolysis of pRPTECs at relatively low concentrations	–	–	–	–
CC(C)[C@@H]1NC(=O)[C@@](C)(NC(=O)[C@H](C)NC(=O)[C@H](CCCCN)NC(=O)CNC(=O)[C@H](Cc2ccccc2)NC(=O)[C@H](CCCCN)NC(=O)[C@H](CCCCN)NC(=O)[C@H](CCCCN)NC(=O)[C@H](CO)NC(=O)[C@H](Cc2c[nH]cn2)NC(=O)[C@]2(C)CCCC=CCCC[C@](C)(NC(=O)CN)C(=O)NCC(=O)N[C@@H](CCCCN)C(=O)N[C@@H](Cc3ccccc3)C(=O)N2)CCCC=CCCC[C@@](C)(C(=O)N[C@@H](C)C(=O)N[C@@H](CCCCN)C(=O)N[C@@H](CCCCN)C(N)=O)NC(=O)[C@H](CCC(=O)O)NC(=O)CNC1=O [Mag(i+4)1,15(A9K, B21A, N22K, S23K), GXGKFXHSKKKFGKAXVGEXAKK] (H-G[S5]GKF[S5]HSKKKFGKA[S5]VGE[S5]AKK-NH2; staple 2-6, 16-20)	0.8 µg/mL (≈ 0.316 µM)	50 µg/mL (≈ 19.7 µM)	3.1 µg/mL (≈ 1.22 µM)	>50 µg/mL	1.6 µg/mL (≈ 0.632 µM)	–	–	–	–	markedly reduced lytic activity toward pRPTECs	lowered long-term lytic activity	–	–
CC(C)[C@@H]1NC(=O)[C@@](C)(NC(=O)[C@H](C)NC(=O)[C@H](CCCCN)NC(=O)CNC(=O)[C@H](Cc2ccccc2)NC(=O)[C@H](CCCCN)NC(=O)[C@H](CCCCN)NC(=O)[C@H](CCCCN)NC(=O)[C@H](CO)NC(=O)[C@H](Cc2c[nH]cn2)NC(=O)[C@]2(C)CCCC=CCCC[C@](C)(NC(=O)CN)C(=O)NCC(=O)N[C@@H](CCCCN)C(=O)N[C@@H](Cc3ccccc3)C(=O)N2)CCCC=CCCC[C@@](C)(C(=O)N[C@@H](CCCCN)C(=O)N[C@@H](CC(N)=O)C(=O)N[C@@H](CO)C(N)=O)NC(=O)[C@H](CCC(=O)O)NC(=O)CNC1=O [Mag(i+4)1,15(A9K, B21K), GXGKFXHSKKKFGKAXVGEXKNS] (H-G[S5]GKF[S5]HSKKKFGKA[S5]VGE[S5]KNS-NH2; staple 2-6, 16-20)	1.6 µg/mL (≈ 0.631 µM)	35.4 µg/mL (≈ 14 µM)	12.5 µg/mL (≈ 4.93 µM)	>50 µg/mL	3.1 µg/mL (≈ 1.22 µM)	–	–	–	–	markedly reduced lytic activity toward pRPTECs	lowered long-term lytic activity	–	–
CCCC[C@H](NC(=O)[C@]1(C)CCCC=CCCC[C@](C)(NC(=O)[C@H](C)NC(=O)[C@H](CCCCN)NC(=O)CNC(=O)[C@H](Cc2ccccc2)NC(=O)[C@H](CCCCN)NC(=O)[C@H](CCCCN)NC(=O)[C@H](CCCCN)NC(=O)[C@H](CO)NC(=O)[C@]2(C)CCCC=CCCC[C@](C)(NC(=O)[C@@H](NC(=O)CN)[C@@H](C)CC)C(=O)N[C@@H](CCCCN)C(=O)N[C@@H](Cc3ccccc3)C(=O)N[C@@H](CC(C)C)C(=O)N2)C(=O)N[C@@H](C(C)C)C(=O)NCC(=O)N[C@@H](CCC(=O)O)C(=O)N1)C(=O)N[C@@H](CC(N)=O)C(=O)N[C@@H](CO)C(N)=O [Mag(i+4)2,15(A9K), GIXKFLXSKKKFGKAXVGEXBNS] (H-GI[S5]KFL[S5]SKKKFGKA[S5]VGE[S5][Nle]NS-NH2; staple 3-7, 16-20)	–	–	–	–	–	2.2 µg/mL	3.1 µg/mL	17.9%	–	–	–	1.6 µg/mL	1.6 µg/mL
CC(C)C[C@H](NC(=O)[C@H](Cc1ccc(O)cc1)NC(=O)[C@H](Cc1c[nH]cn1)NC(=O)[C@@H](NC(=O)[C@H](CC(C)C)NC(=O)[C@]1(C)CCCC=CCCC[C@](C)(NC(=O)[C@H](Cc2c[nH]cn2)NC(=O)[C@H](CCCCN)NC(=O)CNC(=O)[C@@H](NC(=O)[C@H](Cc2c[nH]cn2)NC(=O)[C@H](C)NC(=O)[C@H](CCCCN)NC(=O)[C@H](CCCCN)NC(=O)[C@H](CCCCN)NC(=O)[C@]2(C)CCCC=CCCC[C@](C)(NC(=O)CN)C(=O)NCC(=O)N[C@@H](CO)C(=O)N[C@@H](Cc3ccccc3)C(=O)N2)C(C)C)C(=O)NCC(=O)N[C@@H](CCCCN)C(=O)N[C@@H](C)C(=O)N1)[C@@H](C)O)C(N)=O [Pleu(i+4)1,15(A9K), GXGSFXKKKAHVGKHXGKAXLTHYL] (H-G[S5]GSF[S5]KKKAHVGKH[S5]GKA[S5]LTHYL-NH2; staple 2-6, 16-20)	–	–	–	–	–	1.6 µg/mL	1.6 µg/mL	16.3%	–	–	–	3.1 µg/mL	3.1 µg/mL
CC(C)C[C@H](NC(=O)[C@H](Cc1ccc(O)cc1)NC(=O)[C@H](Cc1c[nH]cn1)NC(=O)[C@@H](NC(=O)[C@H](CC(C)C)NC(=O)[C@]1(C)CCCC=CCCC[C@](C)(NC(=O)[C@H](Cc2c[nH]cn2)NC(=O)[C@H](CCCCN)NC(=O)CNC(=O)[C@@H](NC(=O)[C@H](Cc2c[nH]cn2)NC(=O)[C@H](C)NC(=O)[C@H](C)NC(=O)[C@H](CCCCN)NC(=O)[C@H](CCCCN)NC(=O)[C@]2(C)CCCC=CCCC[C@](C)(NC(=O)CN)C(=O)NCC(=O)N[C@@H](CO)C(=O)N[C@@H](Cc3ccccc3)C(=O)N2)C(C)C)C(=O)NCC(=O)N[C@@H](CCCCN)C(=O)N[C@@H](C)C(=O)N1)[C@@H](C)O)C(N)=O [Pleu(i+4)1,15, GXGSFXKKAAHVGKHXGKAXLTHYL] (H-G[S5]GSF[S5]KKAAHVGKH[S5]GKA[S5]LTHYL-NH2; staple 2-6, 16-20)	–	–	–	–	–	–	–	88.2%	–	–	–	3.1 µg/mL	3.1 µg/mL
